Measurements from publication PMC11397358, “Cytotoxic Activity of Novel GnRH Analogs Conjugated with Mitoxantrone in Ovarian Cancer Cells” (Molecules, 2024).

Legend:
SKOV-3 cells [1] = experiment: TMRE-based detection of mitochondrial membrane potential (ΔΨm); type: cell-based, human; conditions: 1 μM, 72 h, fresh compound every 24 h; three independent experiments; p < 0.01 vs untreated
From the text: The apoptosis of SKOV3 cells by Con-3, Con-7 and mitoxantrone was further validated in a mitochondrial membrane potential (ΔΨm) assay, which utilizes the cell-permeable, cationic dye, tetramethylrhodamine ethyl ester (TMRE) to detect the ΔΨm. TMRE accumulates in healthy mitochondria with polarized membrane, but not in the mitochondria of apoptotic cells. Mitochondrial permeabilization and the loss of the mitochondrial transmembrane potential are associated with cell apoptosis and a drop in fluorescence of TMRE [40].
Figure 8 TMRE-based detection of mitochondrial membrane potential (ΔΨm) of SKOV-3 cells. The change in ΔΨm was detected using TMRE after treatment of SKOV3 cells with 1μM Con-3, Con-7 or mitoxantrone for 72 h. The TMRE fluorescence intensities are represented as histogram bars for results obtained in three independent experiments. […] The data are expressed as the mean ± SEM.
The reduced mitochondrial membrane potential (ΔΨm) that accompanies apoptosis was detected using the fluorescent dye, tetramethylrhodamine ethyl ester (TMRE) (Ex/Em: 530/580 nm), (Cayman, TMRE Mitochondrial Membrane Potential Assay Kit, Item No. 701310). SKOV-3 cells were grown on 60 mm tissue culture dishes to achieve ca. 60% confluence. Monolayers of these cells were treated for a total of 72 h using RPMI 1640 containing 1 μM each of Con-3, Con-7 or mitoxantrone. At the end of each consecutive 24 h treatment period, the test solutions were removed and replaced with new media containing fresh test compounds. After 72 h TMRE was added to each dish to a final concentration of 5 μM. After a 30 min exposure to TMRE, the media was removed so that the cell monolayers could be dispersed using 0.25% trypsin-EDTA. The resultant cell suspensions were subjected to centrifugation and repeated resuspension in a standard extracellular salt solution (SES). […] The TMRE fluorescence intensities monitored from the individual wells were measured using a Flexstation 3 microplate reader (Molecular Devices, Sunnyvale, CA, USA).

SKOV-3 cells [2] = experiment: Confocal microscopy of intracellular mitoxantrone fluorescence, quantified with Image J; type: cell-based, human; conditions: 6 h; for localization of mitoxantrone fluorescence, in words: 1 μM, Hoechst nuclear stain; for effect of cisplatin on intracellular accumulation of mitoxantrone, in words: 1 μΜ, cisplatin 30 μg/mL for 1 h before treatment
From the text: To determine the accumulation of mitoxantrone within the SKOV-3 cells, we used confocal microscopy, exploiting the ability of mitoxantrone to fluoresce. Specifically, the excitation maxima of mitoxantrone are at 610 and 660 nm, whereas its emission maximum is at 685 nm. To stain the nuclei, we used the Hoechst dye. […] In contrast, the fluorescence signal was absent in untreated cells.
(§1) Figure 9 Confocal microscopy images of SKOV-3 cells treated with or without the GnRH-mitoxantrone conjugates, Con-3, Con-7 or mitoxantrone at a concentration of 1 μΜ for 6 h at 37 °C. At the end of the incubation, the cell nuclei were stained with the DNA-staining Hoechst 33342 dye and confocal fluorescent images were obtained after sequential excitation at 350 nm (for the Hoechst dye) and 638 nm (for the mitoxantrone). The emission filters of 461 nm and 650 nm–700 nm were used for collecting blue (Hoechst dye) and red (mitoxantrone) signals in separate channels. The left images show the nuclei staining with Hoechst dye (blue), whereas the middle ones depict the mitoxantrone fluorescence (red). The right images were created by merging the […] and middle ones and depict the localization of mitoxantrone (red) in both the cytoplasm and the nuclei. The figures are shown from a representative experiment performed three times with similar results.
We hypothesized that the GnRH-conjugated mitoxantrone of Con-3 and Con-7 entered the SKOV-3 cells after the reduction in the disulfide bond linking the GnRH analogs with mitoxantrone and subsequent release of the latter from the conjugates. This chemical reaction could be accomplished by the thioredoxin system, which is overexpressed in cancer cells and reduces the disulfide bonds of proteins and peptides. To verify this hypothesis, we incubated the SKOV-3 cells with cisplatin at a concentration of 30 μg/mL for 1 h before treating them with Con-3 or Con-7 conjugates. Cisplatin is a potent inhibitor of the thioredoxin system.
as §1, with “Figure 10” for “Figure 9”, “with” for “with or without”, “conjugates, Con-3 or” for “conjugates, Con-3,”, “Con-7 (1” for “Con-7 or mitoxantrone at a concentration of 1”, “6 h)” for “6 h”, “37 °C, in the presence or absence of cisplatin. Cisplatin was added to the cells 1 h before their incubation with the GnRH-mitoxantrone conjugates.” for “37 °C.”
Figure 11 Confocal microscopy images of SKOV-3 cells treated with mitoxantrone (1 μΜ for 6 h) at 37 °C, in the presence or absence of cisplatin. Cisplatin was added to the cells 1 h before their incubation with mitoxantrone. At the end of the incubation, the cell nuclei were stained with the DNA-staining Hoechst 33342 dye and confocal fluorescent images were obtained after sequential excitation at 350 nm (for the Hoechst dye) and 638 nm (for the mitoxantrone). The emission filters of 461 nm and 650 nm–700 nm were used for collecting blue (Hoechst dye) and red (mitoxantrone) signals in separate channels. The left images show the nuclei staining with Hoechst dye (blue), whereas the middle ones depict the mitoxantrone fluorescence (red). […]

SMILES | TMRE accumulation / fluorescence (mitochondrial membrane potential), in words (SKOV-3 cells [1]) | localization of mitoxantrone fluorescence, in words (SKOV-3 cells [2]) | effect of cisplatin on intracellular accumulation of mitoxantrone, in words (SKOV-3 cells [2])
O=C1c2c(O)ccc(O)c2C(=O)c2c(NCCNCCO)ccc(NCCNCCO)c21 [mitoxantrone] | significantly reduced the accumulation of the TMRE | detected in both the cytoplasm and nucleus | did not affect the intracellular accumulation
CCNC(=O)[C@@H]1CCCN1C(=O)[C@H](CCCNC(=N)N)NC(=O)[C@H](CC(C)C)NC(=O)[C@@H](CCCCNC(=O)CCCCCNC(=O)CCSSCC(=O)OCCNCCNc1ccc(NCCNCCO)c2c1C(=O)c1c(O)ccc(O)c1C2=O)NC(=O)[C@H](Cc1ccc(O)cc1)NC(=O)[C@H](CO)NC(=O)[C@H](Cc1c[nH]c2ccccc12)NC(=O)[C@H](Cc1c[nH]cn1)NC(=O)[C@@H]1CCC(=O)N1 [Con-7] | significantly reduced the accumulation of the TMRE | detected in both the cytoplasm and nucleus | abolished the accumulation of mitoxantrone
CCNC(=O)[C@@H]1CCCN1C(=O)[C@H](CCCNC(=N)N)NC(=O)[C@H](CC(C)C)NC(=O)[C@@H](CSSCCC(=O)OCCNCCNc1ccc(NCCNCCO)c2c1C(=O)c1c(O)ccc(O)c1C2=O)NC(=O)[C@H](Cc1ccc(O)cc1)NC(=O)[C@H](CO)NC(=O)[C@H](Cc1c[nH]c2ccccc12)NC(=O)[C@H](Cc1c[nH]cn1)NC(=O)[C@@H]1CCC(=O)N1 [Con-3] | significantly reduced the accumulation of the TMRE | detected in both the cytoplasm and nucleus | abolished the accumulation of mitoxantrone
